Test results reported in patent US20200405727A1, “NEW ALK INHIBITOR SENOLYTIC DRUGS” (FONDAZIONE PER L'ISTITUTO ONCOLOGICO DI RICERCA (IOR), priority 2018, published 2020).
Entries after “also recorded” stand apart in the source; their conditions may differ.

Legend:
non-senescent (NS) MEFs = assay: Replicative senescence assay in MEFs, non-senescent cells; type: cell-based, murine; conditions: 10 μM, Crystal Violet and SA-β-Gal
Description: (§1) The senolytic activity of Alectinib was validated in the context of the replicative senescence: assay which mimes the natural process of cell ageing due to the shortening of telomers. The MEFs were seeded in 10 cm2-plates (3×10^5 cells/plate). Every 3 days these cells were detached by means of trypsin, counted with Trypan Blu and plated in the same number. This process was performed for 8 passages before starting the senolytic treatment. At passages 8 and 9 the senescence of these cells was tested by means of the assay of SA-β-Gal (about 78% of senescent cells).
(§2) At passage 8, the non-senescent cells (NS) and cells in replicative senescence (RS) were seeded in a 96-well plate (5000 cells/well) and treated at different concentrations of Alectinib.

PC3 = assay: Removal of Palbociclib-induced senescent PC3 prostate cancer cells, Crystal Violet and SA-β-Gal; type: cell-based, human; conditions: 5 μM for 48 hours, senescence induced with Palbociclib
Description: (§3) Subsequently we tested the effects of Alectinib on cancer cell lines pre-treated with stimulator of senescence. In the specific case we used TrampC1 and PC3, two cell lines of prostate cancer, respectively murine and human lines. With the purpose of inducing the senescence in these cells, we used Palbociclib, a specific inhibitor of […] currently used in clinic in the treatment of breast cancer. Once the cells started senescence, Alectinib was added to the culture medium at the concentration of 5 μM for 48 hours.

non-senescent (NS) IMR90 = assay: Replicative senescence assay in IMR90, non-senescent cells; type: cell-based, human; conditions: 2.5 μM, Crystal Violet and SA-β-Gal
Description: (§4) This assay was validated even with human fibroblasts, IMR90. Analogously to the protocol used for the MEFs, the IMR90 were seeded in 10 cm2-wide plates (3×10^5 cells/plate). Every 3 days these cells were detached by means of trypsin, counted with Trypan Blu and plated in the same number. This process was performed for 33 passages before starting the senolytic treatment. At passages 33 and 34 the senescence of these cells was tested by means of the assay of SA-β-Gal (about 78% of senescent cells).
(§5) At passage 33 non-senescent (NS) cells and cells in replicative senescence (RS) were seeded in a 96-well plate (5000 cells/well) and treated with different concentrations of Alectinib.

[1] = tested on: IMR90 in replicative senescence (RS); assay: Replicative senescence assay in human fibroblasts IMR90, Crystal Violet and SA-β-Gal; type: cell-based; conditions: 2.5 μM, passage 33, Crystal Violet and SA-β-Gal
Description: as §4, §5

MEF wt (NS) = assay: Senolytic screening, specificity on non-senescent MEF wt; type: cell-based, murine; conditions: 10 μM, 48 hours; versus ABT-263
Description: (§6) The platform which was devised in our laboratory is capable of identifying the senolytic compounds based upon two parameters: (1) the inhibition of the cell viability and (2) the removal of the positive cells to the assay of β-Galactosidase (SA-β-Gal, senescence marker). As positive control of the compounds at the test stage, we included ABT-263, previously identified as senolytic compound 2. At last, the senolytic potentiality of these compounds is tested on murine embryonic fibroblasts (MEF) Pten−/− and WT.
(§7) Technically the screening was performed in three passages; • Before treatment, to the culture medium of MEF (DMEM, 10%FBS, 5% P/S) Docetaxel is added, at the concentration of 750 nM for 48 hours. […] The cells were seeded in a 96-well plate at a density of 5000 cells per well. In the more external wells PBS was added, so as to be able to maintain the correct humidity inside the plate. • At last, 24 hours after the seeding of cells, the compounds of our study were added to the cells for 48 hours at the concentration of 10 μM. […]

[2] = tested on: MEFs in replicative senescence (RS); assay: Replicative senescence assay in MEFs, Crystal Violet and SA-β-Gal; type: cell-based, murine; conditions: 10 μM, passage 8, Crystal Violet and SA-β-Gal
Description: as §1, §2

MEF Pten−/− (PICS) = assay: Senolytic screening in PICS (Docetaxel-induced senescent MEF Pten−/−), cell viability and SA-β-Gal; type: cell-based, murine; conditions: 10 μM, 48 hours, MEF Pten−/− pre-treated with Docetaxel 750 nM; versus ABT-263 positive control
Description: as §6, §7

TrampC1 = assay: Removal of Palbociclib-induced senescent TrampC1 prostate cancer cells, Crystal Violet and SA-β-Gal; type: cell-based, murine; conditions: 5 μM for 48 hours, senescence induced with Palbociclib
Description: as §3

MEF Pten−/− = assay: Induction of senescence in MEF Pten−/− by Docetaxel; type: cell-based, murine; conditions: 750 nM for 48 hours
Description: (§8) Technically the screening was performed in three passages; • Before treatment, to the culture medium of MEF (DMEM, 10%FBS, 5% P/S) Docetaxel is added, at the concentration of 750 nM for 48 hours. […] The cells were seeded in a 96-well plate at a density of 5000 cells per well. In the more external wells PBS was added, so as to be able to maintain the correct humidity inside the plate. • At last, 24 hours after the seeding of cells, the compounds of our study were added to the cells for 48 hours at the concentration of 10 μM.

MEF WT = assay: Effect of Docetaxel on cell cycle of MEF WT; type: cell-based, murine; conditions: 750 nM for 48 hours
Description: as §8

SMILES | impact on NS cells (MEFs) (non-senescent (NS) MEFs) | removal of senescent cells (PC3) (PC3) | impact on NS cells (IMR90) (non-senescent (NS) IMR90) | removal of senescent cells (RS IMR90) [1] | selectivity: impact on MEF wt (NS) (MEF wt (NS)) | removal of senescent cells (RS MEFs) [2] | removal of senescent cells (PICS) (MEF Pten−/− (PICS)) | removal of senescent cells (TrampC1) (TrampC1) | senescence of MEF Pten−/− (MEF Pten−/−) [%] | cell cycle of MEF WT (MEF WT)
CCc1cc2c(cc1N1CCC(N3CCOCC3)CC1)C(C)(C)c1[nH]c3cc(C#N)ccc3c1C2=O [Alectinib] | without killing the non-senescent (NS) cells; also recorded: without impacting on the cells NS | capability of removing the senescent cells in both cell lines; also recorded: capable of removing successfully the senescent cells | without killing the non-senescent (NS) cells; also recorded: without impacting on the NS cells | capable of removing the senescent cells | non-senescent, NS, cells are kept vital; also recorded: more selective by impacting less seriously on MEF wt (NS) | capable of removing the senescent cells | strong capability in killing the PICS cells; also recorded: effectiveness comparable to ABT-263 | capability of removing the senescent cells in both cell lines; also recorded: capable of removing successfully the senescent cells | – | –
CC(=O)O[C@@]12CO[C@@H]1C[C@H](O)[C@@]1(C)C(=O)[C@H](O)C3=C(C)[C@@H](OC(=O)[C@H](O)[C@@H](NC(=O)OC(C)(C)C)c4ccccc4)C[C@@](O)([C@@H](OC(=O)c4ccccc4)[C@H]21)C3(C)C [Docetaxel] | – | – | – | – | – | – | – | – | 80 | without altering the cell cycle of MEF WT
